The subject of data set [1] is subcutaneous U-87 MG.luc2 tumors. Briefly: In vivo photothermal therapy (PTT) in subcutaneous mouse model of human glioblastoma. Particulars: for median survival: endpoint tumor 1000 mm^3; for highest temperature reached on tumor surface during PTT: 46 nmol injected four hours before PTT, 5 minutes NIR light at 2 W/cm^2. Also on record: species or system mice. The protocol: The animal experiments were approved by the Danish Animal Welfare Council, Ministry of Justice. For the in vivo studies, U-87 MG.luc2 cells were cultured in Dulbecco's modified eagle medium supplemented with 10% fetal bovine serum and 1% penicillin-streptomycin (Thermo Fisher Scientific) at 37° C. and in 5% CO2. When cells reached 70% confluence, they were harvested and 2-3×10^6 cells in 100 μl of PBS were inoculated into the left flank of NMRI nude female mice (Janvier Labs, France). Animals were left to grow tumors until they reached 300 mm^3 (day −1). From then on, tumors were measured every other day with the use of a caliper, and tumor volume calculated through the formula: (length×width^2)*0.5. When tumors reached 1,000 mm^3, animals were euthanized.
When tumors reached 300 mm^3, mice were divided into 5 groups: ICG-Glu-Glu-AE105 group (mice injected with 46 nmol ICG-Glu-Glu-AE105 four hours before PTT, n=6); ICG group (mice injected with 46 nmol of unconjugated ICG four hours before PTT, n=4); Saline group (mice injected with saline four hours before PTT, n=4); sham group (mice injected with ICG-Glu-Glu-AE105 and no PTT, n=5) and a control group (no injection, no PTT, n=4). Animals were given analgesia (buprenorphin, 0.3 mg/ml) right before the laser treatment and every 6 to 8 hours until deemed necessary. For PTT, animals were anesthetized with sevoflurane as previously described and placed under the laser beam for five minutes at 2 W/cm^2. The tumors were swabbed with glycerol, an index-matching agent, prior to the laser treatment to facilitate light penetration (Deng et al. 2011, Vargas et al., 1999, Simon et al., 2019). The temperatures reached on the tumor surface were detected with a thermal camera, as described for the in vitro experiments.
Animals were bioluminescence-scanned a day before PTT, on PTT day and afterwards every other day until endpoints were reached, using IVIS Lumina XR and acquisition software Living Image (Caliper life Sciences, Hopkinton, Calif., USA). For these bioluminescence scans, luciferin was injected intraperitoneally ([…]) ten minutes before the scan. Animals were then anesthetized as described in the previous sections and placed in the prone position. The excitation filter was set to 710 nm and the emission filter was set on ICG.
The fluorescence scans were performed to detect ICG signal before and after PTT using the Fluobeam®800 NIR-camera as described for the accumulation study.
The Kaplan-Meier method was used to create the survival curves, and they were compared through the log-rank test. The maximum temperatures on tumor surface were compared using one-way ANOVA with Tukey's multiple comparisons test. The fluorescence emitted by ICG measured by the Fluobeam before and after PTT was compared using two-way ANOVA with Sidak's multiple comparisons test. The data was plotted in Prism7 and shown as mean±SEM.
After determining ideal dose and treatment schedule, different groups of mice were set up in order to test the ability of ICG-Glu-Glu-AE105 as a photothermal agent, capable of specifically ablating tumors in vivo. For this, mice were injected subcutaneously with U-87 MG.luc2 cells, a type of glioblastoma cells expressing luciferase, which allows for bioluminescence imaging when luciferin is injected. The bioluminescence signal, detected when the reactive luciferin was injected and oxidized by the enzyme luciferase, serves as a way to determine treatment success and follow tumor growth. […] The timeline for the experiments can be seen on FIG. 3. On baseline (day −1), mice underwent a pre-treatment bioluminescence scan. Following, on treatment day (day 0), mice were injected with either ICG-Glu-Glu-AE105, ICG alone, saline or not injected as it was the case for the control group. Approximately four hours after injection, all groups but sham and control were irradiated for 5 minutes with NIR light at 2 W/cm2, and the temperatures on tumor surface were measured with a FLIR camera. […]

Data set [2] is described as follows: In vitro heating of solutions under NIR laser irradiation (FLIR thermal camera). Particulars: NIR laser 2 W/cm^2; for maximum temperature in solution / temperature reached in solution: five minutes irradiation; for temperature reached in solution: 228 nmol; for maximum temperature of solution: irradiated for ten minutes. The class given is physicochemical. The protocol:
The ability of ICG to generate high temperatures when irradiated with NIR light was measured in vitro. Different concentrations (228, 46, 23 and 12 nmol) of unconjugated ICG and ICG-Glu-Glu-AE105 in solution (0.2 g/ml (2-hydroxypropyl)-β-cyclodextrin in water and DMSO) were placed in a plastic cuvette under the laser beam. The laser was turned on for five minutes at 2 W/cm2 and the temperature measured with a thermal camera (FLIR T-440 camera), taking images every 30 seconds. The images were analyzed using the FLIR tools software.
In order to test the ability of ICG-Glu-Glu-AE105 to heat under NIR light, different concentrations of the compound in solution were placed in a plastic cuvette under a laser, at an intensity of 2 W/cm^2. The samples were then irradiated for ten minutes and the temperatures detected with a FLIR camera. For the highest concentration tested, 0.5 mg/ml, temperature increased fast in the first minutes and slower and in a more steady way after that, reaching a maximum temperature of 70.8±3° C. after ten minutes of irradiation. In contrast, lower concentrations reached their maximum peak fast; at five minutes for 0.1 mg/ml (62.7±1.6° C.), and around two to three minutes for 0.05 and 0.025 mg/ml (51.4±0.9 and 40.7±0.4° C. respectively). From that point, temperatures started to decrease most likely due to the irreversible degradation of ICG, which impedes heat generation (Wang et al., 2013).
Different concentrations of ICG in solution were irradiated as it was done for the conjugated dye. […] As expected, the maximum temperature was very similar to the one reached by 0.5 mg/ml of ICG-Glu-Glu-AE105, because a concentration of 0.5 mg/ml of ICG-Glu-Glu-AE105 corresponds to approximately 0.18 mg/ml of ICG alone. […] 0.05 mg/ml of ICG reached a maximum of 68.8±0.7° C. after seven minutes of irradiation, meanwhile 0.025 mg/ml of ICG peaked at three minutes at 50±0.2° C.
5 minutes irradiation trials were also made with reference to testing the ability of ICG-Glu-Glu-AE105 to heat under NIR light. See the set up with the compound in solution placed in a plastic cuvette under a laser beam (intensity 2 W/cm^2) in FIG. 1a. In this case the samples were irradiated for five minutes and the maximum temperatures were recorded with a FLIR camera. (FIG. 1b).
However, it was observed that the heat was mainly localized at the top of the sample and not evenly distributed throughout the solution. […] An important detail observed was the temperature decrease after reaching a certain peak, most likely due to the irreversible degradation of ICG, which impedes heat generation (Wang, Y.-G., Kim, H., Mun, S., Kim, D. & Choi, Y).

Data set [3] deals with U-87 MG.luc2 tumor tissue. Briefly: Tumor response ex vivo: H&E staining and uPAR immunohistochemistry of tumors resected 2 days after PTT. The class given is in vivo, mice. The note with it: n=2 per group. The protocol: Tumors were resected from n=2 mice per group two days after PTT. Tumors were fixated in formaldehyde overnight, and afterwards conserved in ethanol for their later embedding in paraffin. To perform the histology experiments, tumors were resected in 4 μm slices in a microtome (Thermo Scientific Microm HM355S). The tissue slides were left to dry for at least 1.5 hours, and then heated first at 40 and after at 60° C. Following, slides were submerged in HistoClear to achieve deparaffinization and rehydrated through a series of EtOH to water. For hematoxylin and eosin staining, the tissue slides were stained with hematoxylin for 5 minutes, rinsed and stained with eosin for 3 minutes.
For immunohistochemistry, the rehydrated tissue slides underwent heat-induced epitope retrieval (HIER) by covering the tissue slides with 250 mL citrate buffer (pH=6), and steaming them at 100° C. for 15 minutes. […]
Finally, tumors from mice receiving the different treatments (n=2) were resected at day 2 (after PTT) and H&E stained to confirm changes in tumor morphology due to treatment ex vivo (FIG. 7). […] Finally, macrophages were detected through CD68 staining to observe co-localization with uPAR signal, which could be noted, again, for all viable tumor regions.

Where [4] appears, read: 46 nmol four hours before PTT (5 minutes, 2 W/cm^2).

Entries after “also recorded” stand apart in the source; their conditions may differ.

For the molecule `CC1(C)C(/C=C/C=C/C=C/C=C2\N(CCCCS(=O)(=O)O)c3ccc4ccccc4c3C2(C)C)=[N+](CCCCS(=O)(=O)[O-])c2ccc3ccccc3c21` [ICG, indocyanine green], the median survival in data set [1] (setting [4]) is reported as 10 days. In data set [1], the “highest temperature reached on tumor surface during PTT” value is “around 45 °C”. Besides, the “maximum temperature in solution” value in data set [2] (12 nmol) was “around 38 °C”; in data set [2] (23 nmol), “below 50 °C”. In addition, the “temperature reached in solution” value in data set [2] was “around 80 °C”. Further, the “maximum temperature of solution” value was found to be 50±0.2 °C in data set [2] (0.025 mg/ml in solution), 68.8±0.7 °C in data set [2] (0.05 mg/ml in solution) and 71.4±1.1 °C in data set [2] (0.1 mg/ml in solution).

With `CC(C)C[C@H](NC(=O)[C@H](Cc1ccc(O)cc1)NC(=O)C(CCCNC(=N)N)NC(=O)C(CO)NC(=O)C(Cc1ccccc1)NC(=O)[C@H](CC1CCCCC1)NC(=O)C(CC(=O)O)NC(=O)C(CCC(=O)O)NC(=O)C(CCC(=O)O)NC(=O)CCCCCN1\C(=C/C=C/C=C/C=C/C2=[N+](CCCCS(=O)(=O)[O-])c3ccc4ccccc4c3C2(C)C)C(C)(C)c2c1ccc1ccccc21)C(=O)N[C@@H](Cc1c[nH]c2ccccc12)C(=O)N[C@@H](CO)C(=O)O` (stereo partly drawn) [ICG-Glu-Glu-AE105], the median survival is 13.5 days in data set [1] (setting [4]) and 8 days in data set [1] (sham group: injected, no laser treatment). The “tumor growth after PTT” value in data set [1] (46 nmol four hours before PTT, caliper measurement, compared to all the other groups) was “delay in tumor growth”. Also, the “highest temperature reached on tumor surface during PTT” value in data set [1] is “around 52 °C”. In addition, in data set [1] (n=6, followed until 60 days after PTT), the “complete tumor disappearance after PTT” value is “one mouse even experienced complete tumor disappearance”. Also, the “bioluminescence signal after PTT” value in data set [1] (ratio FLUX (day X/day -1), versus all the other groups) was “reduced signal”. For the same molecule, in data set [3], the “H&E staining of tumor tissue” value was “high degree of cell death; also recorded: tissue disruption and hemorrhage”. For the same molecule, the “uPAR signal in tumor tissue (immunological staining)” value in data set [3] is “decrease in uPAR signal”. Moreover, the “temperature reached in solution” value in data set [2] was “around 80 °C”. For the same molecule, the “maximum temperature of solution” value in data set [2] (0.025 mg/ml in solution) was found to be 40.7±0.4 °C; in data set [2] (0.05 mg/ml in solution), 51.4±0.9 °C; in data set [2] (0.1 mg/ml in solution), 62.7±1.6 °C; in data set [2] (0.5 mg/ml in solution), 70.8±3 °C.

Values taken from US20230022032A1, “uPAR-TARGETED PHOTOTHERMAL OPTICAL PROBES FOR PHOTOTHERMAL THERAPY” (RIGSHOSPITALET, priority 2019, published 2023).
